For orientation: IC50 means the concentration at which inhibition is half-maximal.

PI3Kβ, sequence (P42338 whole entry, the tested form may be a part, canonical isoform): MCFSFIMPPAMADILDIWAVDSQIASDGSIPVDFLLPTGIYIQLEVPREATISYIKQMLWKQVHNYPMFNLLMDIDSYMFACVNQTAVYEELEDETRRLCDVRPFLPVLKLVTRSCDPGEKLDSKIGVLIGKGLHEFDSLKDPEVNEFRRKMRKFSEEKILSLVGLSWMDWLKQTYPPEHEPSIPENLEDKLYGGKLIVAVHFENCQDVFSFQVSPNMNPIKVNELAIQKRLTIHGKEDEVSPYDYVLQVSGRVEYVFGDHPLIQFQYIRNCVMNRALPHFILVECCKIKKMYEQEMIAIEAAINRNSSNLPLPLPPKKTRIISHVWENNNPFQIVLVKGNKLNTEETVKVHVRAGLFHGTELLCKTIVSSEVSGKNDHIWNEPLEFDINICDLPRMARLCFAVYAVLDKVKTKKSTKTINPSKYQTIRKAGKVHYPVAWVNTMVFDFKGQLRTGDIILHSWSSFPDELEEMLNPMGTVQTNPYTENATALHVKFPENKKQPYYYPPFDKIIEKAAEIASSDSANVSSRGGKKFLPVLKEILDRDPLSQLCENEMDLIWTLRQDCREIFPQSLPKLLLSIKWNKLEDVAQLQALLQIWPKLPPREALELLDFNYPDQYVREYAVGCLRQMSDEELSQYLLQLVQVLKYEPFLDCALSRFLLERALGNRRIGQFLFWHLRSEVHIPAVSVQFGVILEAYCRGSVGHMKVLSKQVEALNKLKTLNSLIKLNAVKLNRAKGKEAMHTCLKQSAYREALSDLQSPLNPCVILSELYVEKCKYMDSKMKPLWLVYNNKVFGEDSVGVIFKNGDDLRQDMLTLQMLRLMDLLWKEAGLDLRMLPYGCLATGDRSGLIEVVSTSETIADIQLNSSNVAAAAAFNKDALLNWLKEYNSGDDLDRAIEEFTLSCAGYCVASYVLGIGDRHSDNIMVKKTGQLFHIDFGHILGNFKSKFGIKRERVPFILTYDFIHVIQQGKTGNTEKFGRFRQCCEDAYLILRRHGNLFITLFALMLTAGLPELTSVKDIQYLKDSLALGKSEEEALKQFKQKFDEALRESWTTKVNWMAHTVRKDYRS
PI3Kβ, sequence (P27986 whole entry partner, the tested form may be a part, canonical isoform): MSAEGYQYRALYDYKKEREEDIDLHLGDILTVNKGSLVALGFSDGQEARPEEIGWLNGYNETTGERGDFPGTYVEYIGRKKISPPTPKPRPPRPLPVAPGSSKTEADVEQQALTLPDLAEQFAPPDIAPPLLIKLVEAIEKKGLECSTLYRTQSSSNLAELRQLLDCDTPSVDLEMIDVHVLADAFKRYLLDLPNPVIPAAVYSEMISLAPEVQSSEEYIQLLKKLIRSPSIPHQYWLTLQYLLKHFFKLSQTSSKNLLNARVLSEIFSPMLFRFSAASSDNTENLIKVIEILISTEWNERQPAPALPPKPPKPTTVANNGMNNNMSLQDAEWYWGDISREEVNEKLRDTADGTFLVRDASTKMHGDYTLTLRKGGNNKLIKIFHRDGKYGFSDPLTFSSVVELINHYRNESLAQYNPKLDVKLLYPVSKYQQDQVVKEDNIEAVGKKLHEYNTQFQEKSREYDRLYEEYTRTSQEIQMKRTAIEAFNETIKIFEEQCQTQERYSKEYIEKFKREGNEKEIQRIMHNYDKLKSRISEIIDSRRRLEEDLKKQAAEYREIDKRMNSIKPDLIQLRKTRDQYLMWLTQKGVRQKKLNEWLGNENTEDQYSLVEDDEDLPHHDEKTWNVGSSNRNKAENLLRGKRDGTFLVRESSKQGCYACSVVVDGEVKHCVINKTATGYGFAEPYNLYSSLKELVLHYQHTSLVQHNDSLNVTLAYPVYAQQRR

The assay concerns the target PI3Kβ (Homo sapiens (Human), UniProt P42338). The assay is described as follows: TR-FRET enzymatic activity assay, PI3Kβ. The format is biochemical. The conditions noted are these: 2× Km ATP, 2 μM PIP2, 30 minutes at 25° C., read-out: IC50-PIP-Beta. The procedure: The compounds of formula (I) were characterized for their enzymatic activity against the PI3K isoforms. The activities were measured using a time-resolved fluorescence resonance energy transfer (TR-FRET) assay. TR-FRET monitored the formation of 3,4,5-inositol triphosphate molecule that competed with fluorescently labeled PIPS for binding to the GRP-1 pleckstrin homology domain protein.
Class I PI3K isoforms were expressed and purified as heterodimeric recombinant proteins. All assay reagents and buffers for the TR-FRET assay were purchased from Millipore. […] The compounds were added to the assay solution and incubated for 30 minutes at 25° C.
On the technique in general: Time-resolved FRET reads energy transfer from a long-lived donor to a nearby acceptor.
With `Cc1cc(-c2cc(-c3nnc[nH]3)c3nc(C)n(-c4ccnc5c(F)ccc(F)c45)c3c2)ccn1` (single isomer, unassigned) [Example 141, 5,8-difluoro-4-(2-methyl-6-(2-methylpyridin-4-yl)-4-(4H-1,2,4-triazol-3-yl)-1H-benzo[d]imidazol-1-yl)quinoline], the half-inhibitory concentration (IC50) turned out to be 120 nM.

For `Cc1cc(-c2cc(-c3nnc[nH]3)c3nc(C)n(-c4ccnc5c(F)ccc(F)c45)c3c2)ccn1` (single isomer, unassigned) [Example 142, 5,8-difluoro-4-(2-methyl-6-(2-methylpyridin-4-yl)-4-(4H-1,2,4-triazol-3-yl)-1H-benzo[d]imidazol-1-yl)quinoline], the half-maximal inhibitory concentration (IC50) came to 11 nM.

As to `Cc1nc2c(C(=O)O)cc(-c3ccncc3)cc2n1-c1ccnc2c(Cl)cccc12` [Example 1], the IC50 is 34 nM.

Take `Cc1nc2c(C(=O)O)cc(-c3ccnc(N)n3)cc2n1-c1ccnc2c(Cl)cccc12` [Example 2]: the concentration for half-maximal inhibition (IC50) was 13 nM.

Turning to `Cc1nc2c(C(=O)O)cc(-c3ncnc4[nH]cnc34)cc2n1-c1ccnc2c(Cl)cccc12` [Example 3], the half-inhibitory concentration (IC50) is 2800 nM.

`Cc1nc2c(C(=O)O)cc(-c3ccnc(N)c3F)cc2n1-c1ccnc2c(F)ccc(F)c12` [Example 4, 6-(2-amino-3-fluoropyridin-4-yl)-1-(5,8-difluoroquinolin-4-yl)-2-methyl-1H-benzo[d]imidazole-4-carboxylic acid]: the concentration for half-maximal inhibition (IC50) came out at 20 nM.

Turning to `NC(=O)c1cc(-c2ccncc2)cc2c1ncn2-c1ccnc2c(Cl)cccc12` [Example 5, 1-(8-chloroquinolin-4-yl)-6-pyridin-4-ylbenzimidazole-4-carboxamide], the concentration for half-maximal inhibition (IC50) was found to be 86 nM.

As for `Cc1nc2c(C(N)=O)cc(-c3ccncc3)cc2n1-c1ccnc2c(F)ccc(F)c12` [Example 6, 1-(5,8-difluoroquinolin-4-yl)-2-methyl-6-pyridin-4-ylbenzimidazole-4-carboxamide], the IC50 was determined as 36 nM.

Turning to `Cc1cc(-n2c(C)nc3c(C(N)=O)cc(-c4ccncc4)cc32)c2cccc(Cl)c2n1` [Example 7, 1-(8-chloro-2-methylquinolin-4-yl)-2-methyl-6-pyridin-4-ylbenzimidazole-4-carboxamide], the IC50 is 16 nM.

In the case of `Cc1nc2c(C(N)=O)cc(-c3ccncc3)cc2n1-c1ccnc2cccc(F)c12` [Example 8, 1-(5-fluoroquinolin-4-yl)-2-methyl-6-pyridin-4-ylbenzimidazole-4-carboxamide], the IC50 was 82 nM.

For the molecule `Cc1cccc2nccc(-n3c(C)nc4c(C(N)=O)cc(-c5ccncc5)cc43)c12` [Example 9, 2-methyl-1-(5-methylquinolin-4-yl)-6-pyridin-4-ylbenzimidazole-4-carboxamide], the half-inhibitory concentration (IC50) was found to be 950 nM.

`Cc1cc(-n2c(C)nc3c(C(N)=O)cc(-c4ccncc4)cc32)c2ccccc2n1` [Example 10, 2-methyl-1-(2-methylquinolin-4-yl)-6-pyridin-4-ylbenzimidazole-4-carboxamide]: the IC50 came to 1600 nM.

Consider `Cc1nc2c(C(N)=O)cc(-c3ccncc3)cc2n1-c1ccnc2c(Cl)ccc(F)c12` [Example 11, 1-(8-chloro-5-fluoroquinolin-4-yl)-2-methyl-6-pyridin-4-ylbenzimidazole-4-carboxamide], for which the IC50 was 3 nM.

Regarding `NC(=O)c1cc(-c2ccncc2)cc2c1nc(C1COC1)n2-c1ccnc2c(Cl)cccc12` [Example 12, 1-(8-chloroquinolin-4-yl)-2-(oxetan-3-yl)-6-pyridin-4-ylbenzimidazole-4-carboxamide], the IC50 stood at 340 nM.

On to `Cc1nc2c(C(N)=O)cc(-c3ccncc3)cc2n1-c1ccnc2c(Cl)cccc12` [Example 13, 1-(8-chloroquinolin-4-yl)-2-methyl-6-pyridin-4-ylbenzimidazole-4-carboxamide], for which the IC50 was 15 nM.

`Cc1nc2c(C(N)=O)cc(-c3ccncc3F)cc2n1-c1ccnc2c(Cl)cccc12` [Example 14, 1-(8-chloroquinolin-4-yl)-6-(3-fluoropyridin-4-yl)-2-methylbenzimidazole-4-carboxamide]: the IC50 stood at 62 nM.

As to `Cc1cc(-c2cc(C(N)=O)c3nc(C)n(-c4ccnc5c(Cl)cccc45)c3c2)ccn1` [Example 15, 1-(8-chloroquinolin-4-yl)-2-methyl-6-(2-methylpyridin-4-yl)benzimidazole-4-carboxamide], the half-inhibitory concentration (IC50) was determined as 150 nM.

Take `Cc1nc2c(C(N)=O)cc(-c3ccnc(C#N)c3)cc2n1-c1ccnc2c(F)ccc(F)c12` [Example 16, 6-(2-cyanopyridin-4-yl)-1-(5,8-difluoroquinolin-4-yl)-2-methylbenzimidazole-4-carboxamide]: the IC50 is 51 nM.

Consider `Cc1nc2c(C(N)=O)cc(-c3ccnc(N)c3)cc2n1-c1ccnc2c(Cl)ccc(F)c12` [Example 18, 6-(2-aminopyridin-4-yl)-1-(8-chloro-5-fluoroquinolin-4-yl)-2-methylbenzimidazole-4-carboxamide], for which the 50% inhibitory concentration (IC50) was determined as 23 nM.

As to `Cc1nc2c(C(N)=O)cc(-c3ccnc(N)n3)cc2n1-c1ccnc2c(Cl)cccc12` [Example 19, 6-(2-aminopyrimidin-4-yl)-1-(8-chloroquinolin-4-yl)-2-methylbenzimidazole-4-carboxamide], the IC50 came to 12 nM.

Consider `Cc1nc2c(C(N)=O)cc(-c3ncnc4[nH]cnc34)cc2n1-c1ccnc2c(Cl)cccc12` [Example 20, 1-(8-chloroquinolin-4-yl)-2-methyl-6-(9H-purin-6-yl)benzimidazole-4-carboxamide], for which the IC50 came to 1100 nM.

On to `Cc1nc2c(C(N)=O)cc(-c3cc(N)ncn3)cc2n1-c1ccnc2c(Cl)cccc12` [Example 21, 6-(6-aminopyrimidin-4-yl)-1-(8-chloroquinolin-4-yl)-2-methylbenzimidazole-4-carboxamide], for which the IC50 stood at 1300 nM.

In the case of `Cc1nc2c(C(N)=O)cc(-c3cc(N)nc(N)n3)cc2n1-c1ccnc2c(Cl)cccc12` [Example 22, 1-(8-chloroquinolin-4-yl)-6-(2,6-diaminopyrimidin-4-yl)-2-methylbenzimidazole-4-carboxamide], the concentration for half-maximal inhibition (IC50) was determined as 1100 nM.

For the molecule `Cc1nc2c(C(N)=O)cc(-c3ccnc(N)c3)cc2n1-c1ccnc2c(Cl)cccc12` [Example 23, 6-(2-aminopyridin-4-yl)-1-(8-chloroquinolin-4-yl)-2-methyl-1H-benzo[d]imidazole-4-carboxamide], the concentration for half-maximal inhibition (IC50) is 96 nM.

As to `NC(=O)c1cc(-c2ccnc(N)c2F)cc2c1nc(C1CC1)n2-c1ccnc2c(Cl)ccc(F)c12` [Example 25], the IC50 came to 6 nM.

Consider `Cc1nc2c(C(N)=O)cc(-c3ccnc(N)c3F)cc2n1-c1ccnc2c(F)ccc(F)c12` [Example 26, 6-(2-amino-3-fluoropyridin-4-yl)-1-(5,8-difluoroquinolin-4-yl)-2-methyl-1H-benzo[d]imidazole-4-carboxamide], for which the IC50 came out at 13 nM.

With `Clc1cccc2c(-n3cnc4c(-c5ncn[nH]5)cc(-c5ccncc5)cc43)ccnc12` [Example 27, 8-chloro-4-[6-pyridin-4-yl-4-(1H-1,2,4-triazol-5-yl)benzimidazol-1-yl]quinoline], the IC50 was found to be 5 nM.

In the case of `Cc1nc2c(-c3nnc[nH]3)cc(-c3ccncc3)cc2n1-c1ccnc2c(F)ccc(F)c12` [Example 28, 5,8-difluoro-4-[2-methyl-6-pyridin-4-yl-4-(4H-1,2,4-triazol-3-yl)benzimidazol-1-yl]quinoline], the half-inhibitory concentration (IC50) amounted to 6 nM.

Consider `Cc1nc2c(-c3nnc[nH]3)cc(-c3ccncc3)cc2n1-c1ccnc2c(Cl)ccc(Cl)c12` [Example 29, 5,8-dichloro-4-[2-methyl-6-pyridin-4-yl-4-(4H-1,2,4-triazol-3-yl)benzimidazol-1-yl]quinoline], for which the IC50 was 6 nM.

`Cc1nc2c(-c3nnc[nH]3)cc(-c3ccncc3)cc2n1-c1ccnc2cccc(F)c12` [Example 30, 5-fluoro-4-[2-methyl-6-pyridin-4-yl-4-(4H-1,2,4-triazol-3-yl)benzimidazol-1-yl]quinoline]: the IC50 came out at 8 nM.

Turning to `Cc1cccc2nccc(-n3c(C)nc4c(-c5nnc[nH]5)cc(-c5ccncc5)cc43)c12` [Example 31, 5-methyl-4-[2-methyl-6-pyridin-4-yl-4-(4H-1,2,4-triazol-3-yl)benzimidazol-1-yl]quinoline], the IC50 turned out to be 89 nM.

As for `Cc1cc(-n2c(C)nc3c(-c4nnc[nH]4)cc(-c4ccncc4)cc32)c2cccc(Cl)c2n1` [Example 32, 8-chloro-2-methyl-4-[2-methyl-6-pyridin-4-yl-4-(4H-1,2,4-triazol-3-yl)benzimidazol-1-yl]quinoline], the concentration for half-maximal inhibition (IC50) stood at 6 nM.

As to `Cc1nnc(-c2cc(-c3ccncc3)cc3c2nc(C)n3-c2ccnc3c(F)ccc(F)c23)[nH]1` [Example 33, 5,8-difluoro-4-[2-methyl-4-(5-methyl-4H-1,2,4-triazol-3-yl)-6-pyridin-4-ylbenzimidazol-1-yl]quinoline], the 50% inhibitory concentration (IC50) was 110 nM.

For `Cc1cc(-n2c(C)nc3c(-c4nnc[nH]4)cc(-c4ccncc4)cc32)c2ccccc2n1` [Example 34, 2-methyl-4-[2-methyl-6-pyridin-4-yl-4-(4H-1,2,4-triazol-3-yl)benzimidazol-1-yl]quinoline], the half-inhibitory concentration (IC50) amounted to 26 nM.

For the molecule `Cc1nnc(-c2cc(-c3ccncc3)cc3c2nc(C)n3-c2ccnc3c(Cl)cccc23)[nH]1` [Example 35, 8-chloro-4-[2-methyl-4-(5-methyl-4H-1,2,4-triazol-3-yl)-6-pyridin-4-ylbenzimidazol-1-yl]quinoline], the IC50 was 22 nM.

With `Clc1cccc2c(-n3c(C4COC4)nc4c(-c5nnc[nH]5)cc(-c5ccncc5)cc43)ccnc12` [Example 36, 8-chloro-4-[2-(oxetan-3-yl)-6-pyridin-4-yl-4-(4H-1,2,4-triazol-3-yl)benzimidazol-1-yl]quinoline], the IC50 worked out at 250 nM.

The values above are taken from US10227350B2 (Gilead Sciences, Inc., priority 2016, dated 2019).
